Results on 16 compounds are retold here after patent US8609650B2, “Bridged bicyclic aryl and bridged bicyclic heteroaryl substituted triazoles useful as Axl inhibitors” (Rigel Pharmaceuticals, Inc., priority 2006, dated 2013).

In the test the target is T1, Axl (Homo sapiens, UniProt P30530).
T1 construct: endogenous in cells; host or cells: HeLa cells
T1 sequence (P30530 26-894): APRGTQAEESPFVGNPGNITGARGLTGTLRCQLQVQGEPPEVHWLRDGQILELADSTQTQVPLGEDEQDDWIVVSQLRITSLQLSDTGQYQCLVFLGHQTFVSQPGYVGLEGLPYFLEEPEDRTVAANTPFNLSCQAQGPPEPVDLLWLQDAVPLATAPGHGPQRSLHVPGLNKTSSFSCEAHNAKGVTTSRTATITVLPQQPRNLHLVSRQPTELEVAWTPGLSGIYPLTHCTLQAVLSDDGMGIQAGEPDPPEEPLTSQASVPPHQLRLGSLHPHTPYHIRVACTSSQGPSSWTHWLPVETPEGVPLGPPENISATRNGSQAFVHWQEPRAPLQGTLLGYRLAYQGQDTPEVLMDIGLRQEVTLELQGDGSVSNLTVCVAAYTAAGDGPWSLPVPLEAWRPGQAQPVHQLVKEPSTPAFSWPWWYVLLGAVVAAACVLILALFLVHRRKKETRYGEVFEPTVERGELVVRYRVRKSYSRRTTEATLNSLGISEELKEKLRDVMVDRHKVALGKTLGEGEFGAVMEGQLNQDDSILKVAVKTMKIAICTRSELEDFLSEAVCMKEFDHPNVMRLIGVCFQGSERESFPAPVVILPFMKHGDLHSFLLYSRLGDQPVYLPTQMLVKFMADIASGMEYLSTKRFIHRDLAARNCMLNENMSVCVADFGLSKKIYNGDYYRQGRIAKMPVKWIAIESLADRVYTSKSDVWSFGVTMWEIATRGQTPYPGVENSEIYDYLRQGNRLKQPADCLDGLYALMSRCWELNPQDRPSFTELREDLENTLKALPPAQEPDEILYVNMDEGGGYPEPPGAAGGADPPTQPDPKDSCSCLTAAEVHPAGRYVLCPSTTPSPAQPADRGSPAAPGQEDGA
Put plainly: Phospho-Akt In-Cell Western Assay (ability to inhibit Axl activity). In kind it is cell-based. As to conditions: Hela cells, stimulated by Axl-antibody cross-linking, phospho-Akt chemiluminescence normalized to relative cell number. The protocol: The compounds of the invention were tested in the following assay for their ability to inhibit Axl activity.
Phospho-Akt In-Cell Western Assay
• Cell culture plate: 96 well assay plate (Corning 3610), white, clear bottom, tissue-culture treated. • Cells: Hela cells. • Starvation medium: For Axl stimulation: 0.5% FCS (fetal calf serum) in DMEM, plus Axl/Fc (extracellular domain of AXL fused to immunoglobulin Fc region) (R&D, 154-AL) 500 ng/mL. • For EGF (epidermal growth factor) stimulation: 0.5% FCS in DMEM (Dulbecco's modified Eagles medium). • Poly-L-Lysine 0.01% solution (the working solution): 10 μg/ml, dilute In PBS (phosphate buffered saline). • Axl antibody cross-linking: • 1st: Mouse anti-Axl (R&D, MAB154). • 2nd: Biotin-SP-conjugated AffiniPure goat anti-mouse IgG (H+L) (Jackson ImmunoResearch #115-065-003). • Fixing buffer: 4% formaldehyde in PBS. • Wash buffer: 0.1% TritonX-100 in PBS. • Quenching buffer: 3% H2O2, 0.1% Azide in wash buffer, Azide and hydrogen peroxide (H2O2) are added fresh. • Blocking buffer: 5% BSA in TBST (tris buffered saline plus 0.1% Tween 20). • Primary antibody: Rabbit anti-human Phospho-Akt antibody (Cell Signaling 9271): 1×250 diluted in blocking buffer. • Secondary antibody: HRP (horse radish peroxidase)-conjugated Goat anti-Rabbit secondary, stock solution: Jackson ImmunoResearch (Goat anti-Rabbit HRP, #111-035-144) 1:1 diluted in glycerol, store at −20° C. The working solution: 1×2000 dilution of stock in blocking buffer. • Chemiluminescent working solution (Pierce, 37030): SuperSignal ELISA (enzyme linked immunosorbant assay) Pico Chemiluminescent substrate. • Crystal Violet solution: Stock: 2.5% Crystal violet in methanol, filtered and kept at ambient temperature. The working solution: dilute the stock 1:20 with PBS immediately before use. • 10% SDS: working solution: 5% SDS (sodium dodecylsulfate), diluted in PBS Methods: Day 1:
A 96 well TC (tissue culture treated) plate was coated with 10 μg/mL poly-L-Lysine at 37° C. for 30 min, washed twice with PBS, and air-dried for 5 minutes before cells were added. Hela cells were seeded at 10,000 cells/well and the cells were starved in 100 μL starvation medium containing Axl/Fc for 24 hrs.
The cells were pre-treated with test compounds by adding 100 μL of 2× test compound to the starvation medium on the cells. The cells were incubated at 37° C. for 1 hr before stimulation.
The cells were stimulated by Axl-antibody cross-linking as follows: A 5×1st/2nd Axl antibody mixture was made (37.5 μg/mL 1st/100 μg/mL 2nd) in starvation medium and nutated at 4° C. with thorough mixing for 1-2 hours for clustering. The resulting mix was warmed to 37° C. 50 μL of 5× Axl 1st/2nd of antibody cluster was added to the cells and the cells were incubated at 37° C. for 5 min.
After 5 minutes stimulation, the plate was flicked to remove medium and the plate was tapped onto paper towels. Formaldehyde (4.0% in PBS, 100 μL) was added to fix the cells and the cells were incubated at ambient temperature for 20 min without shaking.
The cells were washed with a plate washer buffer to remove the formaldehyde solution. The plate was flicked to removed excess wash buffer and tapped onto paper towels. Quenching buffer (100 μL) was added to each well and the cells were incubated at ambient temperature for 20 minutes without shaking.
The cells were washed with a plate washer buffer to remove the quenching buffer. Blocking buffer (100 μL) was added and the cells were incubated at ambient temperature for at least an hour with gentle shaking.
The cells were washed with a plate washer buffer and diluted primary antibody (50 μL) was added to each well (blocking buffer was added to the negative control wells instead). The plates were incubated overnight at 4° C. with gentle shaking.
The wash buffer was removed, diluted secondary antibody (100 μL) was added, and the cells were incubated at ambient temperature for 1 hour with gentle shaking. […]

Take `Cc1cc(Nc2nc(N)n(-c3cc(-c4ccccc4)c4c(n3)C3CCN4CC3)n2)ccc1N1CCC(N2CCCC2)CC1` [Compound 68, 1-(1,4-ethano-8-phenyl-1,2,3,4-tetrahydro-1,5-naphthyridin-6-yl)-N^3-(3-methyl-4-(4-(pyrrolidin-1-yl)piperidin-1-yl)phenyl)-1H-1,2,4-triazole-3,5-diamine]: the concentration for half-maximal inhibition (IC50) (usually the point on the concentration scale where inhibition reaches its midpoint) is under 1 µM.
The result for `Nc1nc(Nc2ccc(N3CCN(C4CC5CCC4C5)CC3)cc2)nn1-c1ncc2c(n1)C1CCC2C1` (stereo not shown) [Compound 8, N^3-(4-(4-(bicyclo[2.2.1]heptan-2-yl)piperazin-1-yl)phenyl)-1-(5,8-methano-5,6,7,8-tetrahydroquinazolin-2-yl)-1H-1,2,4-triazole-3,5-diamine] reads under 1 µM; that for `CN1CCCC(Oc2ccc(Nc3nc(N)n(-c4ncc5c(n4)C4CCC5C4)n3)cc2)C1` (stereo not shown) [Compound 3, (5,8-methano-5,6,7,8-tetrahydroquinazolin-2-yl)-N^3-(4-(1-methyl(piperidin-3-yl)oxy)phenyl)-1H-1,2,4-triazole-3,5-diamine], under 1 µM; that for `Nc1nc(Nc2ccc(N3CCN(C4CC5CCC4C5)CC3)c(F)c2)nn1-c1cc(-c2ccccc2)c2c(n1)C1CCN2CC1` (stereo not shown) [Compound 36, 1-(1,4-ethano-8-phenyl-1,2,3,4-tetrahydro-1,5-naphthyridin-6-yl)-N^3-(3-fluoro-4-(4-bicyclo[2.2.1]heptan-2-ylpiperazin-1-yl)phenyl)-1H-1,2,4-triazole-3,5-diamine], under 1 µM.
With `Nc1nc(Nc2ccc(N3CCC(N4CCCC4)CC3)c(F)c2)nn1-c1cc(-c2ccsc2)c2c(n1)C1CCN2CC1` [Compound 64, 1-(1,4-ethano-8-thiophen-3-yl-1,2,3,4-tetrahydro-1,5-naphthyridin-6-yl)-N^3-(3-fluoro-4-(4-(pyrrolidin-1-yl)piperidin-1-yl)phenyl)-1H-1,2,4-triazole-3,5-diamine], the half-inhibitory concentration (IC50) was under 1 µM.
The result for `COc1ccc(-c2cc(-n3nc(Nc4ccc(N5CCC(N6CCCC6)CC5)c(F)c4)nc3N)nc3c2N2CCC3CC2)cc1` [Compound 62, 1-(1,4-ethano-8-(4-methoxyphenyl)-1,2,3,4-tetrahydro-1,5-naphthyridin-6-yl)-N^3-(3-fluoro-4-(4-(pyrrolidin-1-yl)piperidin-1-yl)phenyl)-1H-1,2,4-triazole-3,5-diamine] reads under 1 µM; that for “1-(5,8-methano-5,6,7,8-tetrahydroquinazolin-2-yl)-N^3-(4-(morpholin-1-yl)phenyl)-1H-1,2,4-triazole-3,5-diamine [Compound 5]”, 1 to 10 µM.
Under `Nc1nc(Nc2ccc3c(c2)CCC(NC2CCCC2)CC3)nn1-c1cc(-c2ccccc2)c2c(n1)C1CCN2CC1` (stereo not shown) [Compound 70, 1-(1,4-ethano-8-phenyl-1,2,3,4-tetrahydro-1,5-naphthyridin-6-yl)-N^3-(7-cyclopentylamino-6,7,8,9-tetrahydro-5H-benzo[7]annulene-3-yl)-1H-1,2,4-triazole-3,5-diamine] stands under 1 µM; under `CN1CCN(c2ccc(Nc3nc(N)n(-c4ccc5c(n4)[C@@H]4C[C@H](C5)C4(C)C)n3)cc2)CC1` [Compound 38, 1-(7,7-dimethyl-(6R,8R)6,8-methano-5,6,7,8-tetrahydroquinoline-2-yl)-N^3-(4-(4-methylpiperazin-1-yl)phenyl)-1H-1,2,4-triazole-3,5-diamine], under 1 µM; under `Nc1nc(Nc2ccc(N3CCC(N4CCCC4)CC3)c(F)c2)nn1-c1cc(-c2cccnc2)c2c(n1)C1CCN2CC1` [Compound 63, 1-(1,4-ethano-8-pyridin-3-yl-1,2,3,4-tetrahydro-1,5-naphthyridin-6-yl)-N^3-(3-fluoro-4-(4-(pyrrolidin-1-yl)piperidin-1-yl)phenyl)-1H-1,2,4-triazole-3,5-diamine], under 1 µM.
Under `Cc1csc2c(-n3nc(Nc4cnc5c(c4)C4CCC(C5)N4C)nc3N)nc(Cl)nc12` (stereo not shown) [Compound 24, 1-(2-chloro-7-methylthieno[3,2-d]pyrimidin-4-yl)-N^3-(5,7-ethano-5,7,8-trihydro-6-methyl-1,6-naphthyridin-3-yl)-1H-1,2,4-triazole-3,5-diamine] stands under 1 µM.
For the compound `Nc1nc(Nc2ccc(N3CCC(N4CCCC4)CC3)c(F)c2)nn1-c1cc(-c2ccc(C(F)(F)F)cc2)c2c(n1)C1CCN2CC1` [Compound 57, 1-(1,4-ethano-8-(4-trifluoromethylphenyl)-1,2,3,4-tetrahydro-1,5-naphthyridin-6-yl)-N^3-(3-fluoro-4-(4-(pyrrolidin-1-yl)piperidin-1-yl)phenyl)-1H-1,2,4-triazole-3,5-diamine], the IC50 is under 1 µM.
Under “1-(5,8-dimethylmethano-8-methyl-5,6,7-trihydroquinazolin-2-yl)-N^3-(3-fluoro-4-(4-(pyrrolidin-1-yl)piperidin-1-yl)phenyl)-1H-1,2,4-triazole-3,5-diamine [Compound 21]” stands under 1 µM; under `Nc1nc(Nc2ccc(N3CCC(N4CCCC4)CC3)c(F)c2)nn1-c1cc(-c2ccccc2)c2c(n1)C1CCN2CC1` [Compound 25, 1-(1,4-ethano-8-phenyl-1,2,3,4-tetrahydro-1,5-naphthyridin-6-yl)-N^3-(3-fluoro-4-(4-(pyrrolidin-1-yl)piperidin-1-yl)phenyl)-1H-1,2,4-triazole-3,5-diamine], under 1 µM.
Regarding `Nc1nc(Nc2ccc(N3CCNC(C(=O)O)C3)c(F)c2)nn1-c1cc(-c2ccccc2)c2c(n1)C1CCN2CC1` (stereo not shown) [Compound 33, 1-(1,4-ethano-8-phenyl-1,2,3,4-tetrahydro-1,5-naphthyridin-6-yl)-N^3-(3-fluoro-4-(3-carboxypiperazin-1-yl)phenyl)-1H-1,2,4-triazole-3,5-diamine], the IC50 lay within 1 to 10 µM.
`Nc1nc(Nc2ccc3c(c2)CCC(N2CCCC2)CC3)nn1-c1cc(-c2cccs2)c2c(n1)C1CCC2C1` (stereo not shown) [Compound 48, 1-(5,8-methano-4-thiophen-2-yl-5,6,7,8-tetrahydroquinoline-2-yl)-N^3-(7-pyrrolidin-1-yl-6,7,8,9-tetrahydro-5H-benzo[7]annulene-3-yl)-1H-1,2,4-triazole-3,5-diamine]: the half-inhibitory concentration (IC50) was under 1 µM.
